PMC11927960, “Multiparameter ranking of carbazoles for anti-trypanosome lead discovery” (Frontiers in drug discovery, 2024)
≈ marks a conversion by molar mass, not a printed value. Where two headings read alike, the source gives them in different places.

Experiments:
[1] = Thermodynamic aqueous solubility (pH 7.4); assay type: physicochemical; conditions: aqueous buffer, thermodynamic from solid, phosphate buffer pH 7.4, 25 °C, 20–24 h
Protocol: Thermodynamic aqueous solubility (pH 7.4).
Various amounts of compounds in powdered form were added to phosphate buffer (0.1 M, pH 7.4). Suspensions were kept on a shaker at 25 °C for 20–24 h. After centrifugation, compounds in the supernatant were quantified using LC-MS/MS.

[2] = Human liver microsome intrinsic clearance (HLM Clint); assay type: in vitro ADME; conditions: human liver microsomes, 37 °C
Protocol: Intrinsic metabolic clearance.
The test compound was added to a final concentration of 1 μM, and the residual concentrations were tracked with LC-MS/MS at defined time points.

[3] = Plasma pharmacokinetics after single oral dose; assay type: in vivo, Swiss Webster mice; conditions: Swiss Webster, mouse; for AUC(0-t): female mice values of Table 3, quoted in μM, read-out: AUC0–6h
Protocol: The plasma concentration and tissue distribution of drugs were determined by Absorption Systems. […] Blood and brain samples were obtained at 1, 2, 4, and 6 h post-dosing, and plasma and brain concentrations of the drug were determined using LC-MS/MS. Stock standards for calibration were prepared in a matrix comprising equal volumes of water and mouse blood containing K2-EDTA as an anticoagulant. Working solutions were prepared in 50:50 acetonitrile–water and added to the matrix to final concentrations of 1,000, 500, 100, 50.0, 10.0, 5.00, 1.00, and 0.500 ng/mL for all compounds. Pharmacokinetic parameters were determined using Phoenix WinNonlin (v8.0) software with sparse sampling. Maximum plasma concentration (Cmax) and the time to reach maximum plasma concentration (tmax) were determined from the four data points. The area under the time concentration curve (AUClast) was calculated using the linear trapezoidal rule with calculation to a 6-h data point. Plasma half-life (t1/2) was calculated from 0.693/slope of the terminal elimination phase. Samples below the limit of detection (0.500 ng/mL) were treated as 0.

[4] = tested on: DNA synthesis in Trypanosoma brucei; assay: DNA synthesis (EdU incorporation); assay type: cell-based; conditions: for Effect on EdU incorporation into nuclei (DNA synthesis): DTC25 (CBL0174 48 nM, CBL0187 54 nM), vs DMSO, p < 0.0001; for DNA Synthesis affected: DTC25, Table S3
Protocol: Incorporated EdU was tracked by clicking with azide-Alexa Fluor-488 and observed with a fluorescence microscope. For quantitation, at least 100 cells were analyzed from each sample. (A) Representative images of the EdU-positive signal (green) with DAPI (blue) in 0.1% DMSO (top), CBL0174-treated (middle), or CBL0187-treated cells (bottom). (B) Representative images for quantitation of nuclear EdU brightness (nEdU). CellProfiler 3.1.9 was used to extract the EdU fluorescence signal over the DAPI area. Lines represent the median with error bars denoting standard deviation (SD) from three biological replicates. The statistical significance of the distribution of EdU brightness in different treatment groups was analyzed with a Mann–Whitney test.
Bloodstream trypanosomes (5 × 10^5 cells/mL) pretreated with DTC25 concentrations of CBL0174 or CBL0187 in HMI-9 medium (for 15 min) were incubated with 5-ethynyl-2′-deoxyuridine (EdU) (Abcam) (300 μM) for 1 h. Cells were prepared as per [Sullenberger et al. (2017)]. Images of trypanosomes were captured using a DeltaVision II Olympus inverted microscope processed with Fiji (ImageJ, v 2.0.0) and analyzed using CellProfiler 3.1.9 ([Sanz-Rodriguez et al., 2022]).

[5] = tested on: T. brucei AnTat1.1; assay: Treatment of chronic HAT in a mouse model of disease; assay type: in vivo, Trypanosoma brucei in Swiss-Webster mice; conditions: for Mean parasitemia on day 7 post-infection: CBL0174 60 mg/kg, CBL0187 50 mg/kg orally from day 3, vehicle 1.64 × 10^7; for Outcome in chronic HAT mouse model: oral, CBL0137 40 mg/kg days 2-5, 8-11, 14, 15, CBL0174 60 mg/kg and CBL0187 50 mg/kg days 3-9
Protocol: Mice were each infected intraperitoneally with Trypanosoma brucei AnTat1.1 (10^4). […] (B) CBL0174 and CBL0187: Groups V, B, and D were given vehicle, CBL0174 (60 mg/kg) and CBL0187 (50 mg/kg), respectively, from day 3 through 9. Different shapes represent individual mice, and horizontal lines in each group denote mean parasitemia determined with a hemocytometer. UND = undetectable; DPI = days post-infection.
Treatment of chronic HAT in a mouse model of disease
Drug efficacy studies in a mouse model of HAT were conducted following recommendations in the “Guide for the Care and Use of Laboratory Animals” of the National Institutes of Health. The protocol was approved by the Institutional Animal Care and Use Committee (IACUC) at the University of Georgia. After the study, the mice were euthanized by CO2 asphyxiation followed by incision to form a bilateral pneumothorax, as approved by the American Veterinary Association.
Female Swiss-Webster mice (20–25 g; 8–10 weeks old) were acclimatized for 1 week before the commencement of the study. […] Parasites in blood collected from a tail venipuncture and diluted 8-fold in RBC lysis buffer (Qiagen) were monitored with a hemocytometer (Neubauer Bright-line). During the study, mice with parasitemia above 10^8 trypanosomes/mL were euthanized for humane reasons. Mice without parasitemia for 90 days were considered cured.

[6] = tested on: Trypanosoma brucei Lister427; assay: Recovery of trypanosome proliferation after 6-h exposure to Cmax or AUC0–6h amounts in 50% serum; assay type: cell-based; conditions: for Trypanocidal or cytostatic outcome: 6-h treatment with Cmax equivalents
Protocol: Recovery of trypanosome proliferation after a 6-h exposure to curaxins
The in vivo plasma exposure of trypanosomes to drug is expressed as area under the curve (AUC) in pharmacokinetic analysis. Theoretically, the same drug exposures in vitro and in vivo will be achieved within 6 h if the in vitro compound concentration × 6 h value was equal to in vivo AUC0–6h. […] AUC0–6h unbound is equal to the AUC0–6h × fraction of drug unbound to plasma (PFU) (Table 4).
Trypanosomes (1 × 10^5/mL) were treated with a concentration equivalent of the AUC0–6h unbound (Table 4) of each compound. After 6 h, cells were washed and resuspended (1 × 10^5 cells/mL) in drug-free medium. […] Proliferation recovery time was recorded post drug wash-off as described above.

[7] = 6-h treatment with Cmax amount (CBL0137 1.85, CBL0174 1.04, CBL0187 0.72 μM), 50% serum, NR = no recovery 84 h after wash-off

| Compound | solubility [1] [µM] | microsomal CLint at 1 μM [2] [µL/min/mg] | AUC(0-t) [3] [µM·h] | Tmax ([3]; female) [h] | half-life ([3]; female) [min] | Tmax ([3]; male) [h] | half-life ([3]; male) [min] | Effect on EdU incorporation into nuclei (DNA synthesis) [4] | DNA Synthesis affected [4] | Mean parasitemia on day 7 post-infection [5] | Outcome in chronic HAT mouse model [5] | Latency of proliferation [6] [h] | Latency of proliferation [6, 7] [h] | Time to resumption of proliferation (before subtracting 18 h of control) ([6]; 6-h treatment with Cmax equivalent, 50% serum) [h] | Trypanocidal or cytostatic outcome ([6]; 50% serum) |
| --- | --- | --- | --- | --- | --- | --- | --- | --- | --- | --- | --- | --- | --- | --- | --- |
| CC(=O)c1cc2c3cc(C(C)=O)c(O)cc3n(CCNC(C)C)c2cc1O [CBL0187, 1-[6-acetyl-2,7-dihydroxy-9-[2-(isopropylamino)ethyl]carbazol-3-yl]ethanone] | 36.3 (≈ 13.4 µg/mL) | 12.4 | 2.95 ± 0.18 | 1.5 ± 0.7 | > 360 | 2 | > 360 | inhibited EdU incorporation into nuclei | Yes | 8.99 × 10^7 ± 2.43 × 10^7 trypanosomes/mL | failed to control parasitemia | 30 | 6 | 24 | not trypanocidal |
| CC(=O)c1cc2c3cc(C(C)=O)c(O)cc3n(CCCN(C)C)c2cc1O [CBL0174, 1-[6-acetyl-9-[3-(dimethylamino)propyl]-2,7-dihydroxy-carbazol-3-yl]ethanone] | 773 (≈ 285 µg/mL) | 4.89 | 3.14 ± 0.25 | 1 | 217 | 1 | 260 | inhibited EdU incorporation into nuclei | Yes | 8.22 × 10^7 ± 6.64 × 10^6 trypanosomes/mL | failed to control parasitemia | 66 | 66 | – | cytostatic |
